In patent US5741671A, “Isolation cloning and expression of transmembrane water channel aquaporin 1(AQP1)” (The Johns Hopkins University, priority 1995, dated 1998):

Columns and labels:
[1] = target: T1, AQP1 (Homo sapiens, UniProt P29972); assay: Stopped-flow osmotic water permeability of AQP1 proteoliposomes; assay type: biochemical
T1 construct: Human erythrocytes were obtained from blood-bank units stored up to 5 weeks; from tissue; host or cells: human erythrocytes (blood-bank units; small-scale preparations from freshly drawn whole blood)
T1 sequence (P29972 2-269 limits assumed): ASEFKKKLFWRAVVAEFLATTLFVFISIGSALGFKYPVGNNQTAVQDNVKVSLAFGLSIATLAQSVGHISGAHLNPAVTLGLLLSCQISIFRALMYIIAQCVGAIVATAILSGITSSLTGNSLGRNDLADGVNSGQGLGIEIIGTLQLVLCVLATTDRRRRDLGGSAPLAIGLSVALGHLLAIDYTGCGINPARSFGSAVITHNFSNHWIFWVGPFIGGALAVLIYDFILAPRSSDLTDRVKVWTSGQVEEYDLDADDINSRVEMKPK
Description: Preparation AQP1-containing proteoliposomes. Crude Escherichia coli lipid was obtained from Avanti Polar Lipids, Inc., and neutral lipid was removed by acetone/ether wash (Ambudkar & Maloney, 1986, Methods. Enzymol. 125:558-563). The purified E. coli bulk phospholipid is composed of phosphalidylethanolamine (70%), phosphatidylglycerol (15%), and cardiolipin (15%) (Chen & Wilson, […], Proc. Natl. Acad. Sci. USA 83:2652-2656). E. coli bulk phospholipid was employed since it has previously been used for functional reconstitution of several transport proteins including the glucose transporter of RBCs (Maloney & Ambudkar, 1989, Arch. Biochem. Biophys. 269:1-10; Chen et al., 1986, Proc. Natl. Acad. Sci. USA 83:2652-2656).
Highly purified AQP1 protein was incorporated into proteoliposomes by detergent dilution; control liposomes were formed in an identical manner without AQP1 protein.
Purified AQP1 was stored overnight at 0° C. or frozen for several days at -80° C. prior to reconstitution. Reconstitution into proteoliposomes was carried out in a final volume of 1 ml containing 60-90 μg of purified AQP1 protein in chromatography buffer, 9 mg of bath-sonicated E. coli phospholipid, 1.25% (w/v) octyl glucoside, and 50 mM Tris-HCl (pH 7.5). The mixture was briefly blended on a vortex mixer and incubated for 20 minutes on ice. Proteoliposomes (or liposomes prepared without protein) were formed at room temperature by rapidly injecting the mixture into 25 ml of buffer A [50 mM MOPS, pH 7.5, 150 mM N-methyl-D-glucamine (NMDG) chloride also containing 10-15 mM carboxyfluorescein, 1 mM dithiothreitol, and 0.5 mM PMSF]. For the measurement of proton permeability, proteoliposomes and liposomes were loaded with buffer B (5 mM MOPS, pH 7.5, 150 mM KCl, 0.5 mM carboxyfluorescein, 1 mM dithiothreitol, and 0.5 mM PMSF). The suspension was incubated for 20 minutes at room temperature. Proteoliposomes or liposomes were collected by centrifugation for 1 hour at 123000×g in a Beckman Type 42.1 rotor at 4° C. The pellet was resuspended in 8 ml of buffer A or B and then centrifuged for 1 hour at 152000×g in a Beckman Type 50 Ti rotor. Proteoliposomes or liposomes were resuspended in 300 μl of buffer A or B and stored at 4° C. for 16-24 hours. Typically 50% (54±6%, n=5) of the AQP1 protein and 70% of the phospholipid were recovered in proteoliposomes. The lipid to protein ratio was in the range of 120:1 to 219:1. […] Protein and phospholipid were measured as described by Ambudkar & Maloney (J. Biol. Chem., 1986, 261:10079-10086).
(§1) Permeability measurements. Membrane permeability measurements (Pf) were measured by exposing AQP1 proteoliposomes or control liposomes to an osmotic gradient by rapid mixing with an equal volume of another solution containing buffer A plus sufficient sucrose to increase osmolality in the mixed solutions to a value 120% of that in the original solution. This was performed with a stopped-flow fluorometer (SF.17MV, Applied Photophysics, Leatherhead, U.K.) with a measured dead time of 0.7 ms. […] Extravesicular carboxyfluorescein fluorescence was completely quenched using anti-fluorescein antibody (Harris et al., 1990, Am. J. Physiol. 259:F366-F371). Within the range of osmolalities used in these experiments, the vesicles acted as perfect osmometers, and relative volume (absolute volume divided by initial volume) was linearly related to relative fluorescence (absolute fluorescence divided by initial fluorescence). […]

[2] = target: T2, AQP1 (Homo sapiens, UniProt P29972); assay: Xenopus oocyte swelling assay, AQP1 cRNA-injected oocytes (Example 11); assay type: cell-based; parameters: expressed in transfected cells; host or cells: Xenopus oocytes injected with AQP1 cRNA
T2 sequence (P29972 1-269): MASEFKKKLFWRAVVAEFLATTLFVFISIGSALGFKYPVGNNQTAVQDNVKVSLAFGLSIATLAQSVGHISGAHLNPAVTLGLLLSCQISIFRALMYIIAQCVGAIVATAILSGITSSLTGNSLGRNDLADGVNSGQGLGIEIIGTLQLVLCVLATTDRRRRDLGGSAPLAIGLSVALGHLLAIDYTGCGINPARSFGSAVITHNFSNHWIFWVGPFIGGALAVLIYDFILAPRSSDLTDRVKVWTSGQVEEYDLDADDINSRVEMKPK

[3] = Stopped-flow osmotic water permeability of control liposomes; assay type: biochemical; details: mercurial reagent 1 mM
Experimental: Purified AQP1 was stored overnight at 0° C. or frozen for several days at -80° C. prior to reconstitution. Reconstitution into proteoliposomes was carried out in a final volume of 1 ml containing 60-90 μg of purified AQP1 protein in chromatography buffer, 9 mg of bath-sonicated E. coli phospholipid, 1.25% (w/v) octyl glucoside, and 50 mM Tris-HCl (pH 7.5). The mixture was briefly blended on a vortex mixer and incubated for 20 minutes on ice. […] Protein and phospholipid were measured as described by Ambudkar & Maloney (J. Biol. Chem., 1986, 261:10079-10086).
as §1, with “259:F366-F371).” for “259:F366-F371). Within the range of osmolalities used in these experiments, the vesicles acted as perfect osmometers, and relative volume (absolute volume divided by initial volume) was linearly related to relative fluorescence (absolute fluorescence divided by initial fluorescence).”

Row | Structure (SMILES) | Pf after mercurial treatment ([1]; CHIP28 proteoliposomes, 1 mM HgCl2, 3 minutes at 37° C.) | time to complete inhibition of Pf ([1]; CHIP28 proteoliposomes, 1 mM, 37° C.) | inhibition of the increase in Pf mediated by AQP1 ([2]; 1 mM HgCl2, 5 min) | effect on the Pf of control liposomes [3] | reversal of inhibition by mercurial reagents ([1]; 5 mM β-mercaptoethanol after pCMBS or HgCl2) | restoration of Pf of AQP1-expressing oocytes after HgCl2 ([2]; 5 mM β-mercaptoethanol 30 min after 1 mM HgCl2)
1 | [Cl][Hg][Cl] [HgCl2] | 0.007±0.003 cm/s | ≤ 5 min | blocked | Neither pCMBS nor HgCl2 had any effect | – | –
2 | OCCS [β-mercaptoethanol] | – | – | – | – | completely reversed | restored
